Measured values published in US9757375B2, “Compounds that inhibit human DNA ligases and methods of treating cancer” (University of Maryland, Baltimore, priority 2007, dated 2017).

Each compound was assayed against human DNA ligase IV (Homo sapiens, UniProt P49917) (assay: High-throughput fluorescence-based DNA joining (ligation) assay). Details: 100 uM; Ø not defined (0 in Table 5A).
Chain of human DNA ligase IV (P49917 whole entry): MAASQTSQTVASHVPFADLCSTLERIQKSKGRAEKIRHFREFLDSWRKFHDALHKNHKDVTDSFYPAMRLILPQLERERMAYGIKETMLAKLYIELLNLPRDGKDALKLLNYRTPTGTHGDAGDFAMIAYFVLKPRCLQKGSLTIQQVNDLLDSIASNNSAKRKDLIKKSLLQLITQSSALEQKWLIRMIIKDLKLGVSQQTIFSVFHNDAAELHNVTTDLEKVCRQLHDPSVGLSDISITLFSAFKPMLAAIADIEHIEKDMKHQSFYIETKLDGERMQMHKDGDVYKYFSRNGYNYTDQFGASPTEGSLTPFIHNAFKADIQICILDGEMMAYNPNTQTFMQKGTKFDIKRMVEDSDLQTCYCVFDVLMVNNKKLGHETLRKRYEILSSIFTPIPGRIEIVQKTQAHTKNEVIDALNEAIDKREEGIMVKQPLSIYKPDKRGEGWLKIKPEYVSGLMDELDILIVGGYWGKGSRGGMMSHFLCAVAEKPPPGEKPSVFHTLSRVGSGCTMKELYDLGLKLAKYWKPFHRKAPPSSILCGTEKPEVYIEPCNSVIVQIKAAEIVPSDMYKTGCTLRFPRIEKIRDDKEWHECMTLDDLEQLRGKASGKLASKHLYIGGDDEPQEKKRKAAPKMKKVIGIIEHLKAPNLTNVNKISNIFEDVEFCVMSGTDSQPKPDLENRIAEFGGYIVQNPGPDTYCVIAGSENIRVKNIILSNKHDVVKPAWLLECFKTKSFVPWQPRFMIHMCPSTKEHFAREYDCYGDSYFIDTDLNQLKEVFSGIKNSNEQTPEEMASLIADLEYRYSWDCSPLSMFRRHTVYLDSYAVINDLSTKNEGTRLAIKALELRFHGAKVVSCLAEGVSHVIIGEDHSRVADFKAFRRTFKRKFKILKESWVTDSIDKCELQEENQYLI
Chain of human DNA ligase IV (Q13426 whole entry partner): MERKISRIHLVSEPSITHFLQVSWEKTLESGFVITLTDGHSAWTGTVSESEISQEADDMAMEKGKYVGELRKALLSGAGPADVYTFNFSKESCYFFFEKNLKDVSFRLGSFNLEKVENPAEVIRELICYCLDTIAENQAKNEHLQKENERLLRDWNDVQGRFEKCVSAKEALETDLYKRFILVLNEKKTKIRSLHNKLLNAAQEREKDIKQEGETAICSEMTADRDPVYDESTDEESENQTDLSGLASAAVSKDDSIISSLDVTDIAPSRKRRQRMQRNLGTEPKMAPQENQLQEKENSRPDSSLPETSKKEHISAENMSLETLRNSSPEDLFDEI
Type: biochemical
Description: (§1) The method for screening compounds comprises testing the compound for the ability to inhibit human DNA ligases I, III and IV with a high throughput fluorescence-based ligation assay. In this assay, phosphodiester bond formation covalently links together two oligonucleotides, one of which is a fluorescent donor AF488 that is 11 nucleotides from the 3′ terminus and the other contains a fluorescence acceptor and quencher, BHQ1 that is 15 nucleotides from the 5′ terminus. When these oligonucleotides are present in separate duplexes and in the same nicked or intact duplex, there is no significant quenching of fluorescence because the donor and acceptor are too far apart. As single-strands neither the AF488 oligonucleotide nor the BHQ1 oligonucleotides have significant secondary structure. However, when these oligonucleotides are ligated together, the resultant single strand forms a stable hairpin structure, in which the AF488 and BHQ1 groups are very close together, resulting in efficient intra-molecular quenching of fluorescence. Thus, in the DNA joining assay, the DNA substrate is denatured after incubation with the DNA ligase and then renatured in the presence of a 20-fold excess of an oligonucleotide that is identical to the ligated strand containing the fluorescent door and acceptor except that it lacks these modifications. Using this assay, DNA joining, which results in reduced fluorescence at 518 nm, can be measured rapidly, quantitatively and with high-throughput using a fluorescence plate reader.
(§2) Applicants developed a novel high throughput fluorescence-based ligation assay by modifying the sequence of the oligos to optimize hairpin formation by the single strand ligated product of the high throughput fluorescence-based ligation assay of Chen et al (22). […] Compound stock solutions, which were 10 mM in 0.5% DMSO, were diluted in 0.5% DMSO. Human DNA ligases I and III were assayed with a nicked DNA substrate whereas as the substrate for human DNA ligase IV was two oligonucleotide duplexes with short complementary single strand ends.
`Cc1[nH]c2ccc(C(=O)O)cc2c1CC(=O)O` [Compound 35] was tested, and the “% activity Inhibition hLigIV 100 uM” value was “Ø”. With `COC(=O)c1ccc(S(=O)(=O)O)o1` [Compound 55] the “% activity Inhibition hLigIV 100 uM” value was “Ø”. With `O=C(O)c1ccc(C(=O)c2ccc3c(c2)C(=O)N(CCO)C3=O)cc1` [Compound 46] the “% activity Inhibition hLigIV 100 uM” value was “Ø”. `O=C(O)Cn1nnnc1-c1ccc(F)cc1` [Compound 37] was tested, and the “% activity Inhibition hLigIV 100 uM” value was “Ø”. `O=C(O)CN1C(=O)c2ccc([N+](=O)[O-])cc2C1=O` [Compound 90] was tested, and the “% activity Inhibition hLigIV 100 uM” value was “Ø”. `O=C(O)c1ccc(C(=O)O)c(C(=O)O)c1` [Compound 53] was tested, and the “% activity Inhibition hLigIV 100 uM” value was “Ø”. With `COc1ccc(C(CC(=O)O)NC(=O)c2ccco2)cc1` (stereo not shown) [Compound 207] the “% activity Inhibition hLigIV 100 uM” value was “Ø”. With `Nc1nonc1C(=O)O` [Compound 54] the “% activity Inhibition hLigIV 100 uM” value was “Ø”.

Each compound was assayed against T1, human DNA ligase III (Homo sapiens, UniProt P49916) in the same assay as above. Details: 100 uM; Ø not defined (0 in Table 5A).
T1 sequence (P49916 1-862 isoform P49916-4): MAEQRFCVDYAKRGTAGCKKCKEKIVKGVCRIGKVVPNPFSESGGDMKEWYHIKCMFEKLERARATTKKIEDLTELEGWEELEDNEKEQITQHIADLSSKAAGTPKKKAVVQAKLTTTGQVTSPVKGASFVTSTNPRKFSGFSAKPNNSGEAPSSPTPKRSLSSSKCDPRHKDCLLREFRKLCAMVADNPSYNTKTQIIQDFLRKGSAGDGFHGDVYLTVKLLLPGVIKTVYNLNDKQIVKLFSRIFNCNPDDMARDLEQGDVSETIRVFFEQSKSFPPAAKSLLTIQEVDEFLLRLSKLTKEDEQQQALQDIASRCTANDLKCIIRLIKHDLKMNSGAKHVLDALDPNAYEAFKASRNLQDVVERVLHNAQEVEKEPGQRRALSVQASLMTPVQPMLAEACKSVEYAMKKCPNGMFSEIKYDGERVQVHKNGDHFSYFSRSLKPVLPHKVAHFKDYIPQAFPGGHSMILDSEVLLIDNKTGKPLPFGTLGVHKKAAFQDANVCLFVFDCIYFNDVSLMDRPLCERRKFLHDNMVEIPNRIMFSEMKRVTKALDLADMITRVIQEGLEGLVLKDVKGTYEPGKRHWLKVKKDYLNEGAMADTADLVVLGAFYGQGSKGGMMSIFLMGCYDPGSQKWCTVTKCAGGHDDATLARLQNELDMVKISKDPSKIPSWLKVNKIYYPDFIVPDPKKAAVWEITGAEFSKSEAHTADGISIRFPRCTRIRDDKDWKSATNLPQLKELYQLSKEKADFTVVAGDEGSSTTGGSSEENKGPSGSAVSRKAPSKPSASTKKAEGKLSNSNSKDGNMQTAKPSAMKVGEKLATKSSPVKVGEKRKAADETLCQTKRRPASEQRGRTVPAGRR
Type: biochemical
Description: as §1, §2
With `Cc1[nH]c2ccc(C(=O)O)cc2c1CC(=O)O` [Compound 35] the “% activity Inhibition hLigIII 100 uM” value was “Ø”. In the case of `COC(=O)c1ccc(S(=O)(=O)O)o1` [Compound 55], the “% activity Inhibition hLigIII 100 uM” value is reported as “Ø”. For `O=C(O)Cn1nnnc1-c1ccc(F)cc1` [Compound 37], the “% activity Inhibition hLigIII 100 uM” value was “Ø”. With `O=C(O)CN1C(=O)c2ccc([N+](=O)[O-])cc2C1=O` [Compound 90] the “% activity Inhibition hLigIII 100 uM” value was “Ø”. With `O=C(O)c1ccc(C(=O)O)c(C(=O)O)c1` [Compound 53] the “% activity Inhibition hLigIII 100 uM” value was “Ø”. With `Nc1nonc1C(=O)O` [Compound 54] the “% activity Inhibition hLigIII 100 uM” value was “Ø”.

Same assay, conditions: 100 uM; Ø not defined (0 in Table 5A); read-out: % activity Inhibition hLigIII 100 uM
With `O=C(O)c1ccc(C(=O)c2ccc3c(c2)C(=O)N(CCO)C3=O)cc1` [Compound 46] the inhibition at 100 µM was 21.6 ± 8.56%. `COc1ccc(C(CC(=O)O)NC(=O)c2ccco2)cc1` (stereo not shown) [Compound 207] showed an inhibition at 100 µM of 25.8 ± 10.7%.

Each compound was assayed against T2, T4 DNA ligase (Enterobacteria phage T4, UniProt P00970) (assay: High-throughput fluorescence-based DNA joining assay, non-specific inhibitor control). Details: 100 uM.
T2 construct: purchased NEB
T2 sequence (P00970 1-487): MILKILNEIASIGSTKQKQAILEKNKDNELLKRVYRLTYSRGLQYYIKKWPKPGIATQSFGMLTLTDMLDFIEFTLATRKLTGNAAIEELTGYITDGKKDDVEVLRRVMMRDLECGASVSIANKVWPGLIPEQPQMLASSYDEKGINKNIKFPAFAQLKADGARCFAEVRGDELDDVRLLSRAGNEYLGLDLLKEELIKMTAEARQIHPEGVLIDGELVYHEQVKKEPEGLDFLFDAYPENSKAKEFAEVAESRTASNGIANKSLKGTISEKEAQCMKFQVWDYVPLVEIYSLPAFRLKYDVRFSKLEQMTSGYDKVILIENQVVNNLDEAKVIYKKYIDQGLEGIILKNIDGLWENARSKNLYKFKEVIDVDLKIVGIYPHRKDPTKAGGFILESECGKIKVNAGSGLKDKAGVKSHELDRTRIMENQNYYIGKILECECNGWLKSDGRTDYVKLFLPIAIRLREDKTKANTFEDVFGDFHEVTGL
Type: biochemical, bacteriophage T4
Procedure: (§3) Candidate ligase inhibitors identified by CADD were assayed for their ability to inhibit hLigI and T4 DNA ligase using a high-throughput, fluorescence energy transfer-based DNA joining assay (22). Duplicate reactions (30 μL) containing 10 pmol of nicked DNA substrate and either 0.25 pmol of hLigI or 10 units of T4 DNA ligase were incubated in the presence or absence of 100 μmol/L of the putative inhibitor. DNA binding by the candidate DNA ligase inhibitors was measured by displacement of ethidium bromide from DNA as previously described (30).
In addition, to identify compounds that may be non-specific inhibitors of DNA joining, the 192 compounds were also assayed for their ability to inhibit bacteriophage T4 DNA ligase, an enzyme that utilizes the same reaction mechanism as hLigI, has similar adenylation and OB-fold domains but lacks a DBD domain. (6) Although this is also an ATP-dependent DNA ligase, it lacks the domain containing the binding pocket targeted by the in silico screen. Compounds that inhibited T4 DNA ligase were eliminated as non-specific inhibitors that most likely bind to the DNA.
With `COC(=O)c1ccc(S(=O)(=O)O)o1` [Compound 55] the “% activity Inhibition LigT4 100 uM” value was 0.58 ± 3.1%.

Same assay, conditions: read-out: % activity Inhibition LigT4 100 uM
`Cc1[nH]c2ccc(C(=O)O)cc2c1CC(=O)O` [Compound 35] gave an inhibition at 100 µM of 3.7 ± 2.3%. With `O=C(O)Cn1nnnc1-c1ccc(F)cc1` [Compound 37] the inhibition at 100 µM was 3.7%. In the case of `O=C(O)CN1C(=O)c2ccc([N+](=O)[O-])cc2C1=O` [Compound 90], the inhibition at 100 µM is reported as 1.6 ± 3.1%. Compound `O=C(O)c1ccc(C(=O)O)c(C(=O)O)c1` [Compound 53] has an inhibition at 100 µM of 3.7 ± 4.8%. `COc1ccc(C(CC(=O)O)NC(=O)c2ccco2)cc1` (stereo not shown) [Compound 207] gave an inhibition at 100 µM of 10 ± 2%. `Nc1nonc1C(=O)O` [Compound 54] was tested, and the inhibition at 100 µM was 6.9 ± 0.45%.

These compounds were tested against T3, hLigI (Homo sapiens, UniProt P18858) (assay: High-throughput fluorescence-based DNA joining (ligation) assay). Details: 100 uM.
T3 construct: made in house
T3 sequence (P18858 whole entry): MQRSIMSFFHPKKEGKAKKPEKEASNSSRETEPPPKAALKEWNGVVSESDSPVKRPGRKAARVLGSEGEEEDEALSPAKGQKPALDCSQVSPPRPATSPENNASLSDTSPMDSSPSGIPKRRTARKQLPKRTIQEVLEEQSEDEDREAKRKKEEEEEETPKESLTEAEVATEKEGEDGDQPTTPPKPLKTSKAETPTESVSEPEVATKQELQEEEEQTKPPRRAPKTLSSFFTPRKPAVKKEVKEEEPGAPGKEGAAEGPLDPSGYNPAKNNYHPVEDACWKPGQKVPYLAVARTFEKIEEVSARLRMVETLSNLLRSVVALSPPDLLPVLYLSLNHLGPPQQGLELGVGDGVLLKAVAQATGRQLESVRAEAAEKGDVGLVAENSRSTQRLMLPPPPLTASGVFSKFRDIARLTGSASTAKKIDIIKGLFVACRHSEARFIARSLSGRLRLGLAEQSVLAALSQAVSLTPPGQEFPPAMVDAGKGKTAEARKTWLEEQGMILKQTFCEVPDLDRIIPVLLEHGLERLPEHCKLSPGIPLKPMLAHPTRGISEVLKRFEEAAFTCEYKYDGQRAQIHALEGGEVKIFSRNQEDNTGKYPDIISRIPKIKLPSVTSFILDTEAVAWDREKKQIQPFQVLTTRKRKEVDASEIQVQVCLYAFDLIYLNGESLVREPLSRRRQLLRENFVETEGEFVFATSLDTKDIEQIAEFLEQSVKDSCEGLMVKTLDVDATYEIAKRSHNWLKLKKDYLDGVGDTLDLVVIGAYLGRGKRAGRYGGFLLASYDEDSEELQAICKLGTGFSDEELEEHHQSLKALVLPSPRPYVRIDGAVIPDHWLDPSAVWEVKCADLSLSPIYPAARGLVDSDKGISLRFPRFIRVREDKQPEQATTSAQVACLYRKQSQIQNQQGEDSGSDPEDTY
Type: biochemical
Procedure: as §3, §1, §2
For `COC(=O)c1ccc(S(=O)(=O)O)o1` [Compound 55], the “% activity Inhibition hLigI 100 uM” value was 7.5 ± 9.3%. With `O=C(O)c1ccc(C(=O)c2ccc3c(c2)C(=O)N(CCO)C3=O)cc1` [Compound 46] the “% activity Inhibition hLigI 100 uM” value was “Ø”.

Same assay, conditions: 100 uM; read-out: % activity Inhibition hLigI 100 uM
`Cc1[nH]c2ccc(C(=O)O)cc2c1CC(=O)O` [Compound 35] showed an inhibition at 100 µM of 38.7%. Work on `O=C(O)Cn1nnnc1-c1ccc(F)cc1` [Compound 37] yielded an inhibition at 100 µM of 25.2 ± 14.1%. In the case of `O=C(O)CN1C(=O)c2ccc([N+](=O)[O-])cc2C1=O` [Compound 90], the inhibition at 100 µM is reported as 20.7 ± 4.8%. `O=C(O)c1ccc(C(=O)O)c(C(=O)O)c1` [Compound 53] showed an inhibition at 100 µM of 36.4 ± 4.7%. `COc1ccc(C(CC(=O)O)NC(=O)c2ccco2)cc1` (stereo not shown) [Compound 207] showed an inhibition at 100 µM of 20.7 ± 19%. `Nc1nonc1C(=O)O` [Compound 54] showed an inhibition at 100 µM of 32.2 ± 10.5%.

Same assay, conditions: in vitro screen, 100 μmol/L; the 15 hLigI inhibitors inhibited by >50%
`N#CCSc1nnc(SCC#N)s1` [Compound 123] was tested, and the “inhibition of hLigI (DNA ligase I), in words” value (“inhibition of hLigI” for short) was “inhibited hLigI”. In the case of `O=C(O)c1ccc2nccnc2c1` [Compound 175], the “inhibition of hLigI” value is reported as “inhibited hLigI”. In the case of `COC(=O)c1ccc(-n2nnnc2SCC(=O)c2ccc(O)c(O)c2)cc1` [Compound 32], the “inhibition of hLigI” value is reported as “inhibited hLigI”.
